In patent US20050197350A1, “Novel quinoline, tetrahydroquinazoline, and pyrimidine derivatives and methods of treatment related to the use thereof” (TAISHO PHARMACEUTICAL CO., LTD., priority 2003, published 2005):
Like-named read-outs stand apart in the source and are kept apart here.

Test system: MCH receptors
Assay: MCH receptor activity class (method not given)
[1] = class 1-3 by percent of control at 10^-7 M or IC50
[2] = class by percent of control at 10^-7 M or IC50
[3] = MCH receptor, class by percent of control at 10^-7 M or IC50
[4] = class by percent of control at 10^−7 M or IC50
[5] = activity class 1-3: percent of control at 10^-7 M or IC50
[6] = activity class per percent of control at 10^-7 M or IC50

## CN(C)c1nc(N[C@H]2CC[C@@H](NC(=O)c3ccccc3OC(F)(F)F)CC2)nc2c1CCCC2 [compound 554]
[1]
  class: 3 (Class 3 The value of percent of control at 10^−7 M was more than 60% or the value of IC50 was more than 200 nM.)

## CCC(Oc1ccccc1)C(=O)N[C@H]1CC[C@@H](Nc2nc3c(c(N(C)C)n2)CCCC3)CC1 (relative stereo) [compound 484]
[1]
  class: 1 (Class 1: The value of percent of control at 10^−7 M was less than 40% or the value of IC50 was less than 50 nM.)

## CN(C)c1ccnc(N[C@H]2CC[C@@H](NC(=O)Cc3sc(-c4ccccc4)nc3-c3ccc(Cl)cc3)CC2)n1 [compound 900, 2-[4-(4-chlorophenyl)-2-phenyl-1,3-thiazol-5-yl]-N-(cis-4-{[4-(dimethylamino)pyrimidin-2-yl]amino}cyclohexyl)acetamide]
[2]
  class: 1 (Class 1: The value of percent of control at 10^−7 M was less than 40% or the value of IC50 was less than 50 nM.)

## CN(C)c1nc(N[C@H]2CC[C@@H](NC(=S)NC(C)(C)CC(C)(C)C)CC2)nc2c1CCCC2 [compound 1954]
[3]
  class: 3 (Class 3 The value of percent of control at 10^−7 M was more than 60% or the value of IC50 was more than 200 nM.)

## CN(C)c1ccnc(N[C@H]2CC[C@@H](CNC(=O)c3ccccc3I)CC2)n1 [compound 440]
[1]
  class: 3 (Class 3 The value of percent of control at 10^−7 M was more than 60% or the value of IC50 was more than 200 nM.)

## Cc1ccc([C@H](C)NC(=O)[C@H]2CC[C@@H](Nc3ncc(C)c(N(C)C)n3)CC2)cc1 [compound 2772, cis-4-{[4-(dimethylamino)-5-methylpyrimidin-2-yl]amino}-N-[(1S)-1-(4-methylphenyl)ethyl]cyclohexanecarboxamide]
[4]
  class: 1 (Class 1: The value of percent of control at 10^−7 M was less than 40% or the value of IC50 was less than 50 nM.)

## Cc1cc(N(C)C)nc(N[C@H]2CC[C@@H](C(=O)NCc3ccc(F)cc3F)CC2)n1 [Example 2582, cis-N-(2,4-difluorobenzyl)-4-{[4-(dimethylamino)-6-methylpyrimidin-2-yl]amino}cyclohexanecarboxamide]
  class: 1

## COc1cccc(CNC(=S)N[C@H]2CC[C@@H](Nc3nc4c(c(N(C)C)n3)CCCC4)CC2)c1OC [compound 1768]
[2]
  class: 3 (Class 3 The value of percent of control at 10^−7 M was more than 60% or the value of IC50 was more than 200 nM.)

## CN(C)c1ccnc(N[C@H]2CC[C@@H](CNC(=O)OCc3ccccc3Cl)CC2)n1 [compound 1656]
[5]
  class: 3 (Class 3 The value of percent of control at 10^−7 M was more than 60% or the value of IC50 was more than 200 nM.)

## CN(C)c1cc(N[C@H]2CC[C@@H](CNC(=O)C3C[C@H]3c3ccccc3)CC2)nc2ccccc12 (some centres unmarked) [compound 173]
[3]
  class: 3 (Class 3 The value of percent of control at 10^−7 M was more than 60% or the value of IC50 was more than 200 nM.)

## Cc1cccc(C)c1NC(=O)N[C@H]1CC[C@@H](Nc2nccc(N(C)C)n2)CC1 [compound 2180]
[2]
  class: 3 (Class 3 The value of percent of control at 10^−7 M was more than 60% or the value of IC50 was more than 200 nM.)

## C=CCOc1ccccc1CNC[C@H]1CC[C@@H](Nc2nc3c(c(N(C)C)n2)CCCC3)CC1 [compound 1419]
[2]
  class: 3 (Class 3 The value of percent of control at 10^−7 M was more than 60% or the value of IC50 was more than 200 nM.)

## CN(C)c1cc(N[C@H]2CC[C@@H](NC(=O)Nc3ccccc3I)CC2)nc2ccccc12 [compound 2108]
[2]
  class: 3 (Class 3 The value of percent of control at 10^−7 M was more than 60% or the value of IC50 was more than 200 nM.)

## CN(C)c1cc(N[C@H]2CC[C@@H](NC(=O)Cc3c(-c4ccccc4)[nH]c4ccccc34)CC2)nc2ccccc12 [compound 729, N-(cis-4-{[4-(dimethylamino)quinolin-2-yl]amino}cyclohexyl)-2-(2-phenyl-1H-indol-3-yl)acetamide]
[2]
  class: 2 (Class 2: The value of percent of control at 10^−7 M was from 40% to 60% or the value of IC′50 was from 50 nM to 200 nM.)

## CC(Oc1ccccc1)C(=O)N[C@H]1CC[C@@H](Nc2nc3c(c(N(C)C)n2)CCCC3)CC1 (relative stereo) [compound 485]
[1]
  class: 1 (Class 1: The value of percent of control at 10^−7 M was less than 40% or the value of IC50 was less than 50 nM.)

## CN(C)c1cc(N[C@H]2CC[C@@H](NC(=O)Cc3c(Cl)ccc(Cl)c3Cl)CC2)nc2ccccc12 [compound 674, N-(cis-4-{[4-(dimethylamino)quinolin-2-yl]amino}cyclohexyl)-2-(2,3,6-trichlorophenyl)acetamide]
[2]
  class: 3 (Class 3 The value of percent of control at 10^−7 M was more than 60% or the value of IC50 was more than 200 nM.)

## C[C@@H](NC(=S)N[C@H]1CC[C@@H](Nc2nc3c(c(N(C)C)n2)CCCC3)CC1)c1ccccc1 [compound 1778]
[2]
  class: 3 (Class 3 The value of percent of control at 10^−7 M was more than 60% or the value of IC50 was more than 200 nM.)

## CN(C)c1ccnc(N[C@H]2CC[C@@H](CNC(=O)c3cc(F)cc(C(F)(F)F)c3)CC2)n1 [compound 383]
[2]
  class: 3 (Class 3 The value of percent of control at 10^−7 M was more than 60% or the value of IC50 was more than 200 nM.)

## CN(C)c1cc(N[C@H]2CC[C@@H](NC(=O)c3cc(-c4ccc(Cl)cc4)oc3C(F)(F)F)CC2)nc2ccccc12 [compound 140]
[3]
  class: 3 (Class 3 The value of percent of control at 10^−7 M was more than 60% or the value of IC50 was more than 200 nM.)

## CN(C)c1nc(N[C@H]2CC[C@@H](CNC(=O)C3C[C@H]3c3ccccc3)CC2)nc2c1CCCC2 (some centres unmarked) [compound 608]
[2]
  class: 3 (Class 3 The value of percent of control at 10^−7 M was more than 60% or the value of IC50 was more than 200 nM.)

## CN(C)c1ccnc(N[C@H]2CC[C@@H](NC(=O)c3cc(C(C)(C)C)nn3C)CC2)n1 [compound 304]
[2]
  class: 3 (Class 3 The value of percent of control at 10^−7 M was more than 60% or the value of IC50 was more than 200 nM.)

## CN(C)c1nc(N[C@H]2CC[C@@H](NC(=O)Nc3ccc(C#N)cc3)CC2)nc2c1CCCC2 [compound 1688]
[5]
  class: 3 (Class 3 The value of percent of control at 10^−7 M was more than 60% or the value of IC50 was more than 200 nM.)

## Cc1cc(C(=O)N[C@H]2CC[C@@H](Nc3nc4c(c(N(C)C)n3)CCCC4)CC2)cc(C)c1[N+](=O)[O-] [compound 1050]
[6]
  class: 3 (Class 3 The value of percent of control at 10^−7 M was more than 60% or the value of IC50 was more than 200 nM.)

## CN(C)c1nc(N[C@H]2CC[C@@H](CNC(=O)Oc3cccc(C(F)(F)F)c3)CC2)nc2c1CCCC2 [compound 1602]
[5]
  class: 3 (Class 3 The value of percent of control at 10^−7 M was more than 60% or the value of IC50 was more than 200 nM.)

## COc1ccc(CNC[C@H]2CC[C@@H](Nc3nccc(N(C)C)n3)CC2)cc1 [compound 1262]
[2]
  class: 3 (Class 3 The value of percent of control at 10^−7 M was more than 60% or the value of IC50 was more than 200 nM.)

## COc1ccc2[nH]cc(CNC[C@H]3CC[C@@H](Nc4nc5c(c(N(C)C)n4)CCCC5)CC3)c2c1 [compound 1369]
[2]
  class: 1 (Class 1: The value of percent of control at 10^−7 M was less than 40% or the value of IC50 was less than 50 nM.)

## CCCCC/C(=C\c1ccccc1)CN[C@H]1CC[C@@H](Nc2nccc(N(C)C)n2)CC1 [compound 1232]
[2]
  class: 3 (Class 3 The value of percent of control at 10^−7 M was more than 60% or the value of IC50 was more than 200 nM.)

## Cc1cc(Cl)ccc1NC(=O)N[C@H]1CC[C@@H](Nc2cc(N(C)C)c3ccccc3n2)CC1 [compound 2154]
[2]
  class: 3 (Class 3 The value of percent of control at 10^−7 M was more than 60% or the value of IC50 was more than 200 nM.)

## CN(C)c1cc(N[C@H]2CC[C@@H](NC(=O)COc3cccc(Cl)c3)CC2)nc2ccccc12 [compound 133]
[3]
  class: 1 (Class 1: The value of percent of control at 10^−7 M was less than 40% or the value of IC50 was less than 50 nM.)

## Cc1cnc(NC[C@H]2CC[C@@H](NC(=O)c3ccc(F)c(Cl)c3)CC2)nc1N(C)C [compound 2726]
[4]
  class: 2 (Class 2: The value of percent of control at 10^−7 M was from 40% to 60% or the value of IC′50 was from 50 nM to 200 nM.)

## CN(C)c1cc(N[C@H]2CC[C@@H](NC(=O)c3ccc(-c4ccc(Cl)cc4)o3)CC2)nc2ccccc12 [compound 697]
[2]
  class: 3 (Class 3 The value of percent of control at 10^−7 M was more than 60% or the value of IC50 was more than 200 nM.)

## CN(C)c1ccnc(N[C@H]2CC[C@@H](NC(=O)c3ccccc3OC(F)(F)F)CC2)n1 [compound 336]
[2]
  class: 3 (Class 3 The value of percent of control at 10^−7 M was more than 60% or the value of IC50 was more than 200 nM.)

## CN(C)c1cc(N[C@H]2CC[C@@H](NC(=O)C3CCCC3)CC2)nc2ccccc12 [compound 125]
[3]
  class: 3 (Class 3 The value of percent of control at 10^−7 M was more than 60% or the value of IC50 was more than 200 nM.)

## CN(C)c1nc(N[C@H]2CC[C@@H](NC(=O)c3ccc(-c4cccc([N+](=O)[O-])c4)o3)CC2)nc2c1CCCC2 [compound 1039]
[6]
  class: 2 (Class 2: The value of percent of control at 10^−7 M was from 40% to 60% or the value of IC′50 was from 50 nM to 200 nM.)

## CCc1ccccc1NC(=O)NC[C@H]1CC[C@@H](Nc2cc(N(C)C)c3ccccc3n2)CC1 [compound 2377]
MCH receptor activity class 1-3 (percent of control at 10^-7 M or IC50)
  class: 3 (Class 3 The value of percent of control at 10^−7 M was more than 60% or the value of IC50 was more than 200 nM.)

## Cc1ccc(C(=O)CC(SCc2ccc(Cl)cc2)C(=O)N[C@H]2CC[C@@H](Nc3cc(N(C)C)c4ccccc4n3)CC2)cc1 (relative stereo) [compound 742]
[2]
  class: 3 (Class 3 The value of percent of control at 10^−7 M was more than 60% or the value of IC50 was more than 200 nM.)

## CN(C)c1nc(N[C@H]2CC[C@@H](CNC(=O)c3cc(C(C)(C)C)nn3Cc3ccccc3)CC2)nc2c1CCCC2 [compound 647]
[2]
  class: 3 (Class 3 The value of percent of control at 10^−7 M was more than 60% or the value of IC50 was more than 200 nM.)

## CN(C)c1ccnc(N[C@H]2CC[C@@H](NC(=O)Cc3cccc(Oc4ccccc4)c3)CC2)n1 [compound 867]
[2]
  class: 3 (Class 3 The value of percent of control at 10^−7 M was more than 60% or the value of IC50 was more than 200 nM.)
